pKd: −log10 of the molar value.
Experiments:
ctdWDR91 [1] = biological target: T1, ctdWDR91 (Homo sapiens, UniProt A4D1P6); experiment: biochemical
T1 sequence (A4D1P6 392-747): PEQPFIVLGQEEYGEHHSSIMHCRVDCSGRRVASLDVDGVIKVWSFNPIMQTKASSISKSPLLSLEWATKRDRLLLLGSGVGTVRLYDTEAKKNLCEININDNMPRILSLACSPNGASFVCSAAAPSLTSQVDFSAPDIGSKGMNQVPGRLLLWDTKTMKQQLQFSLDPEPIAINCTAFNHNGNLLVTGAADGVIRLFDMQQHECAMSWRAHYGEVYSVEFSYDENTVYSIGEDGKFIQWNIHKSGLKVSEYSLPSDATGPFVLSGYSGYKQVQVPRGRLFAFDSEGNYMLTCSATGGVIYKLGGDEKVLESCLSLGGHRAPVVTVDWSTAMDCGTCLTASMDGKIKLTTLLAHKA

ctdWDR91 [2] = biological target: T1, ctdWDR91; settings: at saturation (0-200 uM series), 2 h pre-incubation; covalent

| pKd (ctdWDR91 [1]) | DSF_delta_Tm_ (ctdWDR91 [2]) | SMILES |
| --- | --- | --- |
| < 4.35 | – | CC1CCN(c2ccc(C(=O)NC3(Cc4cccc(F)c4)CC3)cc2)C1 (stereo not drawn) [DRGG002009a] |
| < 4.35 | – | C=CC(=O)Nc1ccc(CC(=O)NC2(c3ccccc3)COC2)cc1 [MRTR046653a] |
| < 4.35 | – | CC1(c2ccc(C(=O)NC3CCN(c4ccc(F)cc4)C3)cc2)CC1 (stereo not drawn) [DRGG001994a] |
| 4.43 | – | Nc1ncnc2cc(C(=O)NC3(c4ccc(Cl)cc4)COC3)ccc12 [DRGG001943a] |
| < 4.35 | – | O=C(NCC1CCN(c2ccc(F)cc2)C1)c1ccc(N2CCC(O)C2)cc1 (stereo not drawn) [DRGG001938a] |
| – | 4 °C | C=CC(=O)N1CCCc2c(C(=O)NC(c3ccc(Cl)cc3)C3CC3)cccc21 (stereo not drawn) [DRTR002365a] |
| < 4.35 | – | O=C(NCC1CCN(c2ccc(Cl)cc2)C1)c1ccc(CN2CCOCC2)cc1 (stereo not drawn) [DRGG001983a] |
| < 4.35 | – | O=C1CCC(c2ccc(C(=O)NC3CCN(c4ccc(Cl)cc4)C3)cc2)N1 (stereo not drawn) [DRGG001984a] |
| < 4.35 | – | CC(NC(=O)c1ccc(N2CCC(O)C2)cc1)c1cccc(N2CCCC2)c1 (stereo not drawn) [DRGG001998a] |
| < 4.35 | – | O=C(NC1CCN(c2ccc(F)cc2)C1)c1ccc(Cl)cc1 (stereo not drawn) [DRGG001976a] |
| < 4.35 | – | O=C(NCC1CCN(c2ccc(Cl)cc2)C1)c1ccc(F)cc1 (stereo not drawn) [DRGG001950a] |
| < 4.35 | – | O=C(N[C@@H]1C[C@H]1c1ccc(Cl)cc1)c1ccc(N2CCC(O)C2)cc1 (stereo partly drawn) [DRGG001986a] |
| < 4.35 | – | O=C(NC1(Cc2ccccc2)COC1)c1ccc(N2CCC(O)C2)cc1 (stereo not drawn) [DRGG001952a] |
| < 4.35 | – | O=C(N[C@@H]1CCO[C@H]1c1ccc(Cl)cc1)c1ccc(N2CCC(O)C2)cc1 (stereo partly drawn) [DRGG002001a] |
| < 4.35 | – | C=CC(=O)N1CCCc2c(C(=O)NC(c3ccc(F)cc3)C3CCCCC3)cccc21 (stereo not drawn) [DRTR002366a] |
| < 4.35 | – | O=C(CNC(=O)c1ccc(N2CCC(O)C2)cc1)OCc1ccc(Cl)cc1 (stereo not drawn) [DRGG002006a] |
| < 4.35 | – | O=C(NCC1CCN(c2ccc(F)cc2)C1)NC1(c2ccc(Cl)cc2)CC1 (stereo not drawn) [DRGG002015a] |
| 4.80 | – | NC(=O)C1CCCN(c2ccc(C(=O)NC(c3ccc(Cl)cc3)C3CC3)cc2)C1 (stereo not drawn) [DRGG001957a] |
| 4.66 | – | NC(=O)C1CCCN(c2ccc(C(=O)NC(CCO)c3ccc(Cl)cc3)cc2)C1 (stereo not drawn) [DRGG001997a] |

| pKd (ctdWDR91 [1]) | DSF_delta_Tm_ (ctdWDR91 [2]) | SMILES |
| --- | --- | --- |
| < 4.35 | – | O=C1Cc2c(cccc2C(=O)NC2(c3ccc(Cl)cc3)COC2)N1 [DRGG001947a] |
| < 4.35 | – | CC1CCN(c2ccc(C(=O)NC3(Cc4ccc(F)cc4)CC3)cc2)C1 (stereo not drawn) [DRGG002014a] |
| < 4.35 | – | O=C(CNC(=O)c1ccc(F)cc1)NC1CCN(c2ccc(Cl)cc2)C1 (stereo not drawn) [DRGG001962a] |
| < 4.35 | – | O=C(Nc1cccc2cnccc12)c1ccc(N2CCC(O)C2)cc1 (stereo not drawn) [DRGG001979a] |
| < 4.35 | – | O=C(NOCc1ccc(Cl)cc1)c1ccc(N2CCC(O)C2)cc1 (stereo not drawn) [DRGG002010a] |
| < 4.35 | – | O=C(NC1(c2ccc(Cl)cc2)COC1)c1ccc(CC2CC2)cc1 [DRGG001970a] |
| 4.85 | – | O=C(NC(CCO)c1ccc(Cl)cc1)c1ccc(N2CCC(O)C2)cc1 (stereo not drawn) [DRGG001961a] |
| < 4.35 | – | Cc1nc2sccn2c1C(=O)NC1(c2ccc(Cl)cc2)COC1 [DRGG001989a] |
| < 4.35 | – | CC1CCN(c2ccc(C(=O)NC3(C)Cc4ccccc4C3)cc2)C1 (stereo not drawn) [DRGG001937a] |
| < 4.35 | – | Cc1ccc(N2CCC(NC(=O)c3ccc(Cl)cc3)C2)cc1 (stereo not drawn) [DRGG001953a] |
| < 4.35 | – | O=C(NC1(c2ccc(Cl)cc2)COC1)c1ccc2c(c1)NC(=O)C1CCCN21 (stereo not drawn) [DRGG002018a] |
| < 4.35 | – | O=C(NC1(c2ccc(Cl)cc2)COC1)c1ccc(N2CCCC2)cc1 [DRGG001988a] |
| < 4.35 | – | O=C(NC1CCN(c2ccc(Cl)cc2)C1)c1ccc(CN2CCCC2=O)cc1 (stereo not drawn) [DRGG001992a] |
| < 4.35 | – | O=C(NC1CCN(c2ccc(Cl)cc2)C1)c1ccc2c(c1)CC2 (stereo not drawn) [DRGG001973a] |
| < 4.35 | – | O=C(NC1(c2ccc(Cl)cc2)COC1)c1cncc2cnccc12 [DRGG001948a] |
| < 4.35 | – | O=C(NCC1CCN(c2ccc(Cl)cc2)C1)NC1(c2ccc(F)cc2)CC1 (stereo not drawn) [DRGG002005a] |
| < 4.35 | – | O=C(NC1(c2ccc(Cl)cc2)COC1)c1ccc(OCC2CC2)cc1 [DRGG001971a] |
| < 4.35 | – | O=C(N[C@@H]1CC2(CCC2)Oc2ccc(F)cc21)c1ccc(N2CCC(O)C2)cc1 (stereo partly drawn) [DRGG001964a] |
| < 4.35 | – | O=C(NC1(c2ccc(Cl)cc2)COC1)c1cccc(N2CCCC2)c1 [DRGG001982a] |

| pKd (ctdWDR91 [1]) | DSF_delta_Tm_ (ctdWDR91 [2]) | SMILES |
| --- | --- | --- |
| < 4.35 | – | O=C(NC1CC1)c1ccc(C(=O)NC2CCN(c3ccc(Cl)cc3)C2)cc1 (stereo not drawn) [DRGG002012a] |
| < 4.35 | – | O=C(CNC(=O)c1ccc(O)cc1)NCC1CCN(c2ccc(Cl)cc2)C1 (stereo not drawn) [DRGG001951a] |
| < 4.35 | – | NC(=O)c1ccc(C2(C(=O)NCC3CCN(c4ccc(Cl)cc4)C3)CC2)cc1 (stereo not drawn) [DRGG002017a] |
| < 4.35 | – | O=C(NCC1CCN(c2ccc(F)cc2)C1)C1(c2ccc(Cl)cc2)CCOCC1 (stereo not drawn) [DRGG001995a] |
| < 4.35 | – | O=C(N[C@@H]1CCN(C2CC2)[C@H]1c1ccccc1)c1ccc(N2CCC(O)C2)cc1 (stereo partly drawn) [DRGG001958a] |
| < 4.35 | – | O=C(NCC1CCN(c2ccc(Cl)cc2)C1)c1ccc(C2(O)COC2)cc1 (stereo not drawn) [DRGG001959a] |
| < 4.35 | – | O=C(NCC1CCN(c2ccc(F)cc2)C1)N1CC(O)(c2ccc(Cl)cc2)C1 (stereo not drawn) [DRGG002002a] |
| < 4.35 | – | O=C(NCC1CCN(c2ccc(Cl)cc2)C1)c1cccc(C2(O)COC2)c1 (stereo not drawn) [DRGG001996a] |
| < 4.35 | – | O=C(NCC1CCN(Cc2ccccc2)C1)c1ccc(N2CCC(O)C2)cc1 (stereo not drawn) [DRGG001968a] |
| < 4.35 | – | O=C(c1ccc(N2CCC(O)C2)cc1)N1Cc2ccc(Cl)cc2C1 (stereo not drawn) [DRGG001955a] |
| < 4.35 | – | O=C(NCCOc1ccc(Cl)cc1)c1ccc(N2CCC(O)C2)cc1 (stereo not drawn) [DRGG002013a] |
| < 4.35 | – | O=C(NC1CCN(c2ccc(Cl)cc2)C1)c1ccc(N2CCC(O)C2)cc1 (stereo not drawn) [DRGG001963a] |
| < 4.35 | – | CC1(NC(=O)c2ccc(N3CCC(O)C3)cc2)CCN(C(=O)OC(C)(C)C)C1 (stereo not drawn) [DRGG002003a] |
| < 4.35 | – | O=C(NCC1CCN(c2ccc(Cl)cc2)C1)c1ccc(C(=O)NC2CC2)cc1 (stereo not drawn) [DRGG001936a] |
| – | 4 °C | C=CC(=O)N1CCCc2c(C(=O)NC3(c4ccc(Cl)cc4)COC3)cccc21 [MRTR046654a] |
| < 4.35 | – | O=C(NC1CCN(c2ccc(Cl)cc2)C1)c1ccc(C2(O)COC2)cc1 (stereo not drawn) [DRGG001966a] |
| < 4.35 | – | O=C(NCC1CCN(c2ccc(Cl)cc2)C1)N1CC(O)(c2ccc(F)cc2)C1 (stereo not drawn) [DRGG002007a] |
| < 4.35 | – | CC1CCN(c2ccc(C(=O)NCC3(c4ccc(F)cc4)CC3)cc2)C1 (stereo not drawn) [DRGG001965a] |
| < 4.35 | – | O=C(NC1(c2ccc(Cl)cc2)COC1)C1CCN(c2ccccc2)C1 (stereo not drawn) [DRGG001991a] |

Source: paper doi:10.1101/2023.08.21.552681v1 (biorxiv, 2023)
